Compound in one assay: CN1CCN(c2nc(C3=C(c4c[nH]c5ccccc45)C(=O)NC3=O)c3ccccc3n2)CC1 [SOTRASTAURIN/AEB071]
As to the kind of experiment: surviving fraction relative to DMSO-only wells; higher = less growth inhibition. As to conditions: exposure time: 5 days. In short, it runs like this:
(§1)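 Viability was scored with CellTiter-Glo luminescence and normalised to the median of DMSO-only wells as surviving fraction. Beforehand, log-phase tumour cell lines were seeded at 250–500 cells per well in 384-well plates, allowed 24 hours, and exposed continuously for five days to inhibitors at 0.5, 1, 5, 10, 50, 100, 500 and 1000 nM. Only lines whose three screens gave replicate Pearson r >0.7 and median Z' >0.3 were kept.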

Compound in assay [1]: T1, Cn1nnc2c(C(N)=O)ncn2c1=O [TEMOZOLOMIDE]
The assay is described as above. The conditions noted are these: exposure time: 5 days. In short, it runs like this:
as §1

Compound in another assay: Cc1nc(Nc2ncc(C(=O)Nc3c(C)cccc3Cl)s2)cc(N2CCN(CCO)CC2)n1 [DASATINIB]
As to the kind of experiment: area under dose-response curve of surviving fraction (unscaled, Aref=0) (surviving fraction x log10(nM)); higher = more resistant. The conditions noted are these: exposure time: 5 days; dose range 0.5-1000 nM. In short, it runs like this:
(§2)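 Each tumour cell line was screened three times in 384-well plates, receiving eight inhibitor concentrations from 0.5 to 1000 nM for five days. CellTiter-Glo luminescence gave viability, normalised to DMSO-only wells. Using the drc R package, surviving fractions were fitted with 3-parameter logistic dose-response curves, and the unscaled activity area over log10 dose (Aref = 0) was taken as the area under the curve.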

Compound in assay [2]: T1, TEMOZOLOMIDE
Described as above. As to conditions: exposure time: 5 days; dose range 0.5-1000 nM. In short, it runs like this:
as §2

Compound in a further assay: NS(=O)(=O)OC[C@@H]1C[C@@H](n2ccc3c(N[C@H]4CCc5ccccc54)ncnc32)C[C@@H]1O [MLN-4924]
The description is as above. The conditions noted are these: exposure time: 5 days; dose range 0.5-1000 nM. The method, boiled down:
as §2

± gives the standard deviation of the averaged measurements.

Consider HS578T BREAST, for which the surviving fraction came out at 0.899 ± 0.11 with SOTRASTAURIN/AEB071 (0.5 nM); 0.861 ± 0.083 with SOTRASTAURIN/AEB071 (1 nM); 0.977 ± 0.27 with SOTRASTAURIN/AEB071 (5 nM); 0.954 ± 0.11 with SOTRASTAURIN/AEB071 (10 nM); 1.06 ± 0.16 with SOTRASTAURIN/AEB071 (50 nM); 0.916 ± 0.057 with SOTRASTAURIN/AEB071 (100 nM). Further, the surviving fraction with SOTRASTAURIN/AEB071 (500 nM) was found to be 0.877 ± 0.064; in the assay with SOTRASTAURIN/AEB071 (1000 nM) it was 1.01 ± 0.17; with TEMOZOLOMIDE [1] (0.5 nM), 0.927 ± 0.11; in the assay with TEMOZOLOMIDE [1] (1 nM), 0.886 ± 0.094; in the assay with TEMOZOLOMIDE [1] (5 nM), 0.91 ± 0.15; in the assay with TEMOZOLOMIDE [1] (10 nM) it was 0.913 ± 0.054. Moreover, the surviving fraction with TEMOZOLOMIDE [1] (50 nM) worked out at 1.05 ± 0.1; with TEMOZOLOMIDE [1] (100 nM) it was 0.916 ± 0.074; in the assay with TEMOZOLOMIDE [1] (500 nM), 0.936 ± 0.12; in the assay with TEMOZOLOMIDE [1] (1000 nM) it was 0.942 ± 0.12. Moreover, the “area under dose-response curve” value with DASATINIB was found to be 1.56; with TEMOZOLOMIDE [2] it was 3.09; with MLN-4924 it was 2.37.

HS57T BREAST: the surviving fraction with SOTRASTAURIN/AEB071 (0.5 nM) stood at 1.06 ± 0.044; with SOTRASTAURIN/AEB071 (1 nM), 1.08 ± 0.026; in the assay with SOTRASTAURIN/AEB071 (5 nM), 1.12 ± 0.056; with SOTRASTAURIN/AEB071 (10 nM), 1.09 ± 0.063; with SOTRASTAURIN/AEB071 (50 nM), 1.03 ± 0.092; with SOTRASTAURIN/AEB071 (100 nM), 1.05 ± 0.028. Further, the surviving fraction came out at 1.03 ± 0.031 with SOTRASTAURIN/AEB071 (500 nM); 1 ± 0.087 with SOTRASTAURIN/AEB071 (1000 nM); 0.907 ± 0.067 with TEMOZOLOMIDE [1] (0.5 nM); 0.947 ± 0.056 with TEMOZOLOMIDE [1] (1 nM); 1.01 ± 0.051 with TEMOZOLOMIDE [1] (5 nM); 1.04 ± 0.049 in the assay with TEMOZOLOMIDE [1] (10 nM). Besides, the surviving fraction was found to be 1.02 ± 0.033 with TEMOZOLOMIDE [1] (50 nM), 1.03 ± 0.074 in the assay with TEMOZOLOMIDE [1] (100 nM), 0.93 ± 0.058 with TEMOZOLOMIDE [1] (500 nM) and 0.948 ± 0.071 with TEMOZOLOMIDE [1] (1000 nM).

Regarding HMT3552 BREAST, the surviving fraction with SOTRASTAURIN/AEB071 (0.5 nM) was determined as 0.982 ± 0.13; in the assay with SOTRASTAURIN/AEB071 (1 nM), 0.975 ± 0.012; with SOTRASTAURIN/AEB071 (5 nM), 0.984 ± 0.037; in the assay with SOTRASTAURIN/AEB071 (10 nM) it was 1.04 ± 0.04; with SOTRASTAURIN/AEB071 (50 nM) it was 1.03 ± 0.059; with SOTRASTAURIN/AEB071 (100 nM), 1.04 ± 0.013. In addition, the surviving fraction amounted to 1.3 ± 0.11 with SOTRASTAURIN/AEB071 (500 nM); 1.24 ± 0.06 in the assay with SOTRASTAURIN/AEB071 (1000 nM); 1.09 ± 0.094 with TEMOZOLOMIDE [1] (0.5 nM); 1.07 ± 0.015 with TEMOZOLOMIDE [1] (1 nM); 1.05 ± 0.038 with TEMOZOLOMIDE [1] (5 nM); 1.09 ± 0.071 in the assay with TEMOZOLOMIDE [1] (10 nM). Also, the surviving fraction in the assay with TEMOZOLOMIDE [1] (50 nM) stood at 1.15 ± 0.06; in the assay with TEMOZOLOMIDE [1] (100 nM) it was 1.19 ± 0.063; with TEMOZOLOMIDE [1] (500 nM), 1.09 ± 0.039; with TEMOZOLOMIDE [1] (1000 nM) it was 1.15 ± 0.022. In addition, the figures for the “area under dose-response curve” value with DASATINIB, with TEMOZOLOMIDE [2] and with MLN-4924 were 1.53, 3.67 and 2.14, respectively.

Take HCC70 BREAST: the surviving fraction with SOTRASTAURIN/AEB071 (0.5 nM) worked out at 1.17 ± 0.049; in the assay with SOTRASTAURIN/AEB071 (1 nM), 1.05 ± 0.073; with SOTRASTAURIN/AEB071 (5 nM), 1.1 ± 0.046; in the assay with SOTRASTAURIN/AEB071 (10 nM), 1.14 ± 0.02; in the assay with SOTRASTAURIN/AEB071 (50 nM) it was 1.15 ± 0.024; with SOTRASTAURIN/AEB071 (100 nM), 1.18 ± 0.038. Further, the surviving fraction was found to be 1.25 ± 0.029 with SOTRASTAURIN/AEB071 (500 nM); 1.22 ± 0.06 with SOTRASTAURIN/AEB071 (1000 nM); 0.984 ± 0.016 in the assay with TEMOZOLOMIDE [1] (0.5 nM); 1.04 ± 0.11 with TEMOZOLOMIDE [1] (1 nM); 1.07 ± 0.064 in the assay with TEMOZOLOMIDE [1] (5 nM); 1.08 ± 0.054 in the assay with TEMOZOLOMIDE [1] (10 nM). Besides, the surviving fraction was found to be 1.06 ± 0.079 with TEMOZOLOMIDE [1] (50 nM), 1.15 ± 0.095 with TEMOZOLOMIDE [1] (100 nM), 1.06 ± 0.09 in the assay with TEMOZOLOMIDE [1] (500 nM) and 1.09 ± 0.086 in the assay with TEMOZOLOMIDE [1] (1000 nM). Besides, the “area under dose-response curve” value with DASATINIB was found to be 2.81; with TEMOZOLOMIDE [2], 3.54; in the assay with MLN-4924, 2.21.

In the case of HCC38 BREAST, the surviving fraction in the assay with SOTRASTAURIN/AEB071 (0.5 nM) was determined as 0.974 ± 0.11; in the assay with SOTRASTAURIN/AEB071 (1 nM), 0.913 ± 0.14; with SOTRASTAURIN/AEB071 (5 nM) it was 1.02 ± 0.16; with SOTRASTAURIN/AEB071 (10 nM), 1.16 ± 0.23; in the assay with SOTRASTAURIN/AEB071 (50 nM) it was 0.851 ± 0.19; with SOTRASTAURIN/AEB071 (100 nM), 0.874 ± 0.042. In addition, the surviving fraction with SOTRASTAURIN/AEB071 (500 nM) is 0.759 ± 0.11; in the assay with SOTRASTAURIN/AEB071 (1000 nM), 0.805 ± 0.12; in the assay with TEMOZOLOMIDE [1] (0.5 nM), 1.34 ± 0.19; with TEMOZOLOMIDE [1] (1 nM) it was 1.25 ± 0.04; in the assay with TEMOZOLOMIDE [1] (5 nM), 1.31 ± 0.13; with TEMOZOLOMIDE [1] (10 nM) it was 1.39 ± 0.032. Also, the surviving fraction is 1.33 ± 0.11 with TEMOZOLOMIDE [1] (50 nM), 1.32 ± 0.06 with TEMOZOLOMIDE [1] (100 nM), 1.3 ± 0.26 in the assay with TEMOZOLOMIDE [1] (500 nM) and 1.33 ± 0.11 with TEMOZOLOMIDE [1] (1000 nM). Besides, the “area under dose-response curve” value with DASATINIB worked out at 2.79; with TEMOZOLOMIDE [2] it was 4.36; with MLN-4924 it was 2.17.

As for G292 BONE, the surviving fraction in the assay with SOTRASTAURIN/AEB071 (0.5 nM) came to 1.04 ± 0.016; in the assay with SOTRASTAURIN/AEB071 (1 nM) it was 1.002 ± 0.0081; with SOTRASTAURIN/AEB071 (5 nM), 1.04 ± 0.057; with SOTRASTAURIN/AEB071 (10 nM), 1.01 ± 0.025; in the assay with SOTRASTAURIN/AEB071 (50 nM), 1.02 ± 0.072; with SOTRASTAURIN/AEB071 (100 nM), 0.987 ± 0.077. The surviving fraction with SOTRASTAURIN/AEB071 (500 nM) is 0.969 ± 0.024; with SOTRASTAURIN/AEB071 (1000 nM) it was 0.982 ± 0.046; in the assay with TEMOZOLOMIDE [1] (0.5 nM) it was 1.01 ± 0.015; with TEMOZOLOMIDE [1] (1 nM) it was 0.9995 ± 0.0082; in the assay with TEMOZOLOMIDE [1] (5 nM) it was 0.981 ± 0.037; with TEMOZOLOMIDE [1] (10 nM) it was 1.05 ± 0.018. The surviving fraction in the assay with TEMOZOLOMIDE [1] (50 nM) came to 1.04 ± 0.062; with TEMOZOLOMIDE [1] (100 nM), 1.02 ± 0.025; in the assay with TEMOZOLOMIDE [1] (500 nM), 0.986 ± 0.048; in the assay with TEMOZOLOMIDE [1] (1000 nM), 0.992 ± 0.029. Moreover, the “area under dose-response curve” value was determined as 1.79 with DASATINIB, 3.33 with TEMOZOLOMIDE [2] and 2.51 with MLN-4924.

Take HMLE3 BREAST: the surviving fraction in the assay with SOTRASTAURIN/AEB071 (0.5 nM) amounted to 1.11 ± 0.098; with SOTRASTAURIN/AEB071 (1 nM) it was 1.1 ± 0.057; in the assay with SOTRASTAURIN/AEB071 (5 nM) it was 1.15 ± 0.034; with SOTRASTAURIN/AEB071 (10 nM), 1.13 ± 0.061; in the assay with SOTRASTAURIN/AEB071 (50 nM), 1.12 ± 0.087; with SOTRASTAURIN/AEB071 (100 nM) it was 1.02 ± 0.078. Further, the surviving fraction with SOTRASTAURIN/AEB071 (500 nM) worked out at 0.961 ± 0.12; with SOTRASTAURIN/AEB071 (1000 nM), 0.831 ± 0.084; with TEMOZOLOMIDE [1] (0.5 nM), 1.01 ± 0.053; with TEMOZOLOMIDE [1] (1 nM) it was 1.12 ± 0.085; with TEMOZOLOMIDE [1] (5 nM), 1.01 ± 0.11; with TEMOZOLOMIDE [1] (10 nM), 1.04 ± 0.021. For the same test system, the surviving fraction in the assay with TEMOZOLOMIDE [1] (50 nM) was found to be 1.03 ± 0.039; in the assay with TEMOZOLOMIDE [1] (100 nM), 1.03 ± 0.026; with TEMOZOLOMIDE [1] (500 nM) it was 1.03 ± 0.044; with TEMOZOLOMIDE [1] (1000 nM), 1.15 ± 0.079. For the same test system, the “area under dose-response curve” value with DASATINIB is 2.46; in the assay with TEMOZOLOMIDE [2], 3.48; in the assay with MLN-4924, 2.48.
